Experimental data: PubChem BioAssay AID248 (DTP/NCI, 2004)
Values joined by “and” are separate entries in the source; they are usually repeats but may differ in a detail not shown here. Equal entries are not always repeated. Inconclusive results and toxic doses are left out.

Tested on: L1210 leukemia ip in BDF1 mice, survival T/C
Assay: NCI In Vivo Anticancer Drug Screen. Data for tumor model L1210 Leukemia (intraperitoneal) in B6D2F1 (BDF1) mice
Details: endpoint: mean survival time, higher = longer survival
In short: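 Transplantable tumor model; survival measured in treated vs vehicle control mice. Value = treated/control.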

[1] = dose: 50.0 mg/kg/injection, schedule: Q01DX001 (ip), vehicle: saline
[2] = dose: 100.0 mg/kg/injection, schedule: Q01DX001 (ip), vehicle: saline
[3] = dose: 200.0 mg/kg/injection, schedule: Q01DX001 (ip), vehicle: saline
[4] = dose: 400.0 mg/kg/injection, schedule: Q01DX001 (ip), vehicle: saline

How did the T/C (dose: 1.0 mg/kg/injection, schedule: Q#A X Z (ip), vehicle: saline) turn out when `O=C(Nc1ccc(C2=NCCN2)cc1)c1ccc(C(=O)Nc2ccc(C3=NCCN3)cc2)c([N+](=O)[O-])c1` was run?
The T/C was 103 % of control.

And the T/C (dose: 2.0 mg/kg/injection, schedule: Q01DX Z (ip), vehicle: saline)?
Its T/C is 112 % of control.

And the T/C (dose: 2.5 mg/kg/injection, schedule: Q## X000 (iv), vehicle: other)?
Its T/C is 97 % of control.

And the T/C (dose: 3.6 mg/kg/injection, schedule: Q01DX Z (ip), vehicle: methylcellulose (MC))?
The T/C was 163 % of control.

What about the T/C (dose: 4.0 mg/kg/injection, schedule: Q01DX Z (ip), vehicle: saline) of the same compound?
The T/C was 116 % of control.

What about the T/C (dose: 4.0 mg/kg/injection, schedule: Q#A X Z (ip), vehicle: saline) of the same compound?
The T/C was 184 % of control.

What about the T/C (dose: 5.0 mg/kg/injection, schedule: Q## X000 (iv), vehicle: other) of the same compound?
Its T/C is 96 % of control.

And the T/C (dose: 5.4 mg/kg/injection, schedule: Q01DX Z (ip), vehicle: methylcellulose (MC))?
Its T/C is 195 % of control.

What about the T/C (dose: 6.0 mg/kg/injection, schedule: Q01DX004 (im), vehicle: olive oil, sesame oil, peanut oil) of the same compound?
The T/C was 97 % of control.

What about the T/C (dose: 6.0 mg/kg/injection, schedule: Q03DX Z (ip), vehicle: saline) of the same compound?
The T/C was 115 % of control.

And the T/C (dose: 8.0 mg/kg/injection, schedule: Q01DX004 (im), vehicle: olive oil, sesame oil, peanut oil)?
The T/C was 98 % of control.

What about the T/C (dose: 8.0 mg/kg/injection, schedule: Q01DX Z (ip), vehicle: methylcellulose (MC)) of the same compound?
Its T/C is 246 % of control.

What about the T/C (dose: 8.0 mg/kg/injection, schedule: Q01DX Z (ip), vehicle: saline) of the same compound?
Its T/C is 204 % of control.

And the T/C (dose: 10.0 mg/kg/injection, schedule: Q## X000 (iv), vehicle: other)?
The T/C was 120 % of control.

What about the T/C (dose: 12.0 mg/kg/injection, schedule: Q01DX004 (im), vehicle: olive oil, sesame oil, peanut oil) of the same compound?
Its T/C is 101 % of control.

What about the T/C (dose: 12.0 mg/kg/injection, schedule: Q01DX Z (ip), vehicle: methylcellulose (MC)) of the same compound?
Its T/C is 204 % of control.

What about the T/C (dose: 12.0 mg/kg/injection, schedule: Q03DX Z (ip), vehicle: saline) of the same compound?
The T/C was 123 % of control.

And the T/C (dose: 16.0 mg/kg/injection, schedule: Q01DX009 (ip), vehicle: saline)?
Its T/C is 188 % of control and 198 % of control.

What about the T/C (dose: 18.0 mg/kg/injection, schedule: Q01DX004 (im), vehicle: olive oil, sesame oil, peanut oil) of the same compound?
The T/C was 104 % of control.

What about the T/C (dose: 24.0 mg/kg/injection, schedule: Q03DX Z (ip), vehicle: saline) of the same compound?
The T/C was 188 % of control.

And the T/C (dose: 28.0 mg/kg/injection, schedule: Q07DX Z (ip), vehicle: saline)?
Its T/C is 113 % of control.

What about the T/C (dose: 32.0 mg/kg/injection, schedule: Q01DX009 (ip), vehicle: saline) of the same compound?
Its T/C is 100 % of control and 103 % of control.

What about the T/C (dose: 32.0 mg/kg/injection, schedule: Q01DX Z (ip), vehicle: saline) of the same compound?
Its T/C is 86 % of control.

And the T/C (dose: 48.0 mg/kg/injection, schedule: Q03DX Z (ip), vehicle: saline)?
The T/C was 172 % of control.

And the T/C (dose: 64.0 mg/kg/injection, schedule: Q01DX Z (sc), vehicle: steriod suspending solution)?
Its T/C is 159 % of control.

What about the T/C (dose: 96.0 mg/kg/injection, schedule: Q03DX Z (ip), vehicle: saline) of the same compound?
Its T/C is 100 % of control.

And the T/C (dose: 125.0 mg/kg/injection, schedule: Q01DX Z (sc), vehicle: steriod suspending solution)?
The T/C was 122 % of control.

And the T/C (dose: 240.0 mg/kg/injection, schedule: Q01DX Z (oral), vehicle: saline)?
Its T/C is 101 % of control.

How did the T/C (dose: 7.5 mg/kg/injection, schedule: Q01DX015 (ip), vehicle: carboxymethylcellulose (CMC)) turn out when `Cc1ccc(S(=O)(=O)OCCN(CCOS(=O)(=O)c2ccc(C)cc2)c2ccccc2)cc1` was run?
The T/C was 109 % of control.

What about the T/C [1] of the same compound?
Its T/C is 117 % of control.

And the T/C (dose: 60.0 mg/kg/injection, schedule: Q01DX015 (ip), vehicle: carboxymethylcellulose (CMC))?
The T/C was 122 % of control.

And the T/C [2]?
The T/C was 115 % of control.

`CC(=O)Nc1cc2cc(Br)ccc2oc1=O` was tested. Which T/C (dose: 100.0 mg/kg/injection, schedule: Q01DX009 (ip), vehicle: Klucel (hydroxypropylcellulose) (HPC)) did it give?
Its T/C is 95 % of control.

And the T/C (dose: 200.0 mg/kg/injection, schedule: Q01DX009 (ip), vehicle: Klucel (hydroxypropylcellulose) (HPC))?
Its T/C is 93 % of control.

How did the T/C (dose: 100.0 mg/kg/injection, schedule: Q04DX003 (ip), vehicle: Klucel (hydroxypropylcellulose) (HPC)) turn out when `CN1C(=O)OC2(CCN(Cc3ccccc3)CC2)C1=O` was run?
The T/C was 102 % of control.

And the T/C (dose: 200.0 mg/kg/injection, schedule: Q04DX003 (ip), vehicle: Klucel (hydroxypropylcellulose) (HPC))?
The T/C was 90 % of control.

And the T/C (dose: 400.0 mg/kg/injection, schedule: Q04DX003 (ip), vehicle: Klucel (hydroxypropylcellulose) (HPC))?
Its T/C is 98 % of control.

For `CN(C)C1CCc2c(ccc3ccccc23)C1=O` (configuration not stated), which T/C (dose: 25.0 mg/kg/injection, schedule: Q01DX001 (ip), vehicle: saline) is on record?
Its T/C is 99 % of control.

What about the T/C [1] of the same compound?
Its T/C is 99 % of control.

And the T/C [2]?
Its T/C is 100 % of control.

Which T/C [1] does the source give for `O=c1ccn(C2SC(CO)C(O)C2O)c(=O)[nH]1` (configuration not stated) here?
The T/C was 108 % of control.

And the T/C [2]?
The T/C was 100 % of control.

What about the T/C [3] of the same compound?
The T/C was 88 % of control.

And the T/C [4]?
Its T/C is 108 % of control.

For `O=c1cc(CC(O)(c2ccccc2)c2ccccc2)cc[nH]1`, which T/C [2] is on record?
The T/C was 100 % of control.

And the T/C [3]?
The T/C was 95 % of control.

And the T/C [4]?
The T/C was 100 % of control.
